Reference: patent US20150025120A1, “PYRAZOLE-ALCOHOL COMPOUNDS AND PHARMACEUTICAL USE THEREOF” (JAPAN TOBACCO INC., priority 2013, published 2015)

What was measured:
[1] = Metabolic stability test in liver microsome (rat); assay type: in vitro ADME
human PDHK2 (hPDHK2) = target: T1, human PDHK2 (hPDHK2) (Homo sapiens, UniProt Q15119); experiment: Inhibitory action of PDHK2 activity in vitro (residual PDH activity after kinase reaction); assay type: biochemical
T1 construct: made in house; host or cells: Escherichia coli BL21(DE3), pET17b
Method: The inhibitory action of PDHK activity was assessed indirectly by measuring the residual PDH activity after kinase reaction in the presence of a test compound.
In the case of human PDHK2 (hPDHK2, Genbank Accession No. BC040478.1), modified hPDHK2 cDNA wherein FLAG-Tag sequence was added to the N terminus of hPDHK2 cDNA clone (pReceiver-M01/PDK2-GeneCopoeia) was prepared by PCR and cloned into a vector (pET17b-Novagen). The recombinant construct was transformed into Escherichia coli (DH5α-TOYOBO). The recombinant clones were identified, and plasmid DNA was isolated and subjected to the DNA sequence analysis. One clone which had the expected nucleic acid sequence was selected for expression work.
For expression of hPDHK2 activity, Escherichia coli strain BL21(DE3) cells (Novagen) were transformed with the pET17b vector containing modified hPDHK2 cDNA. The Escherichia coli were grown to an optical density 0.6 ([…]) at 30° C. Protein expression was induced by the addition of 500 μmol/L isopropyl-β-thiogalactopyranoside. The Escherichia coli were cultured at 30° C. for 5 hr and harvested by centrifugation. Resuspension of the Escherichia coli paste was disrupted by a microfluidizer. FLAG-Tagged protein was purified using FLAG affinity gel. The gel was washed with 20 mmol/L HEPES-NaOH, 500 mmol/L sodium chloride, 1% ethylene glycol, and 0.1% Pluronic F-68 (pH 8.0), and the binding protein was eluted with 20 mmol/L HEPES-NaOH, 100 μg/mL FLAG peptide, 500 mmol/L sodium chloride, 1% ethylene glycol, and 0.1% Pluronic F-68 (pH 8.0). The eluted fractions containing FLAG-Tagged protein were pooled, dialyzed against 20 mmol/L HEPES-NaOH, 150 mmol/L sodium chloride, 0.5 mmol/L EDTA, 1% ethylene glycol, and 0.1% Pluronic F-68 (pH 8.0), and preserved at −80° C.
0.05 U/mL PDH and 0.8 μg/mL hPDHK2 were mixed in a buffer (50 mmol/L 3-morpholinopropanesulfonic acid (pH 7.0), 20 mmol/L dipotassium hydrogen phosphate, 60 mmol/L potassium chloride, 2 mmol/L magnesium chloride, 0.4 mmol/L EDTA, and 0.2% Pluronic F-68, 2 mmol/L dithiothreitol), and the mixture was incubated at 4° C. overnight to obtain a PDH/hPDHK2 complex. The test compounds were diluted with DMSO. […] DMSO (1.5 μL) was added to control wells instead of the test compound. […] The mixture was incubated at room temperature for 90 min, and the residual PDH activity was measured. The absorbance at 340 nm before and after PDH reaction was measured using a microplate reader to detect NADH produced by the PDH reaction. The hPDHK2 inhibition rate (%) of the test compound was calculated from the formula [{(PDH activity of test compound−PDH activity of control)/PDH activity of blank−PDH activity of control)}×100].

tissue PDH activity = experiment: Ex vivo PDH activation assay (liver and epididymal adipose tissue after oral administration); assay type: in vivo, Sprague-Dawley rats; details: 3 mg/kg, rat, mean ± standard deviation
Method: The action of test compound on tissue PDH activity was evaluated. NADH production was detected via p-iodonitrotetrazolium violet (INT)-coupled system to measure PDH activity.
Normal male Sprague-Dawley rats were randomly allocated to the vehicle group and the test compound groups. The vehicle (0.5% aqueous methylcellulose solution, 5 mL/kg) or the test compound was orally administered to the rats. At 5 or 20 hr after administration, the rats were anesthetized with an intraperitoneal injection of sodium pentobarbital (60 mg/kg), and liver slices and epididymal adipose tissues were collected.
To the liver slices were rapidly added 9 volumes of ice-cold homogenization buffer (0.25 mol/L sucrose, 5 mmol/L tris(hydroxymethyl)aminomethane hydrochloride (pH 7.5), 2 mmol/L EDTA), and the mixtures were homogenized using a Polytron homogenizer. The homogenates were centrifuged at 600×g, 4° C. for 10 min to obtain the supernatant. The supernatants (1 mL) were centrifuged at 16,000×g, 4° C. for 10 min to collect the precipitates. The precipitates were washed by resuspension in the homogenization buffer (1 mL) and centrifuged in the same manner. The precipitates were frozen with liquid nitrogen and stored at −80° C. as the liver mitochondrial fraction.
To the adipose tissues were rapidly added 3 volumes of an ice-cold homogenization buffer, and the mixtures were homogenized using a Polytron homogenizer. The homogenates were centrifuged at 600×g, 4° C. for 10 min to obtain the supernatant. The supernatants were centrifuged at 16,000×g, 4° C. for 10 min to collect the precipitates. The precipitates were washed by resuspension in the homogenization buffer (1 mL) and centrifuged in the same manner. The precipitates were frozen with liquid nitrogen and stored at −80° C. as the adipose tissue mitochondrial fraction.
The mitochondrial fractions were thawed and suspended with the sample buffer (0.25 mol/L sucrose, 20 mmol/L tris(hydroxymethyl)aminomethane hydrochloride (pH 7.5), 50 mmol/L potassium chloride, and 1 mL/L 4-(1,1,3,3-tetramethylbutyl)phenyl-polyethylene glycol (Triton X-100)). Active PDH activity (PDHa activity) and total PDH activity (PDHt activity) were measured to evaluate the PDH activity. For the measurement of the PDHt activity, equal amounts of the mitochondrial suspension and the activation buffer (0.25 mol/L sucrose, 20 mmol/L tris(hydroxymethyl)aminomethane hydrochloride (pH 7.5), 50 mmol/L potassium chloride, 1 mL/L Triton X-100, 4 mmol/L calcium chloride, 40 mmol/L magnesium chloride, 10 mmol/L sodium dichloroacetate) were mixed, and the mixtures were incubated at 37° C. for 10 min. Forty microliters of the mitochondrial suspensions diluted with a sample buffer were added to a 96-well microplate for activity measurement and blank measurement. Then 180 μL of the reaction mixture (0.056 mmol/L potassium phosphate buffer (pH 7.5), 5.6 mmol/L DL-carnitine, 2.8 mmol/L NAD, 0.22 mmol/L thiamin pyrophosphate, 0.11 mmol/L Coenzyme A, 1.1 mL/L Triton X-100, 1.1 mmol/L magnesium chloride, 1.1 g/L bovine serum albumin, 0.67 mmol/L INT, 7.2 μmol/L phenazine methosulfate, 28 mmol/L sodium oxamate) was added to each well, and then 20 μL of 50 mmol/L sodium pyruvate for activity measurement or water for blank measurement were added. The mixtures were incubated at room temperature under shading. The absorbances at 500-750 nm, which were attributable to reduction of INT, the final electron acceptor, were measured using a microplate reader over time and the changes in the absorbance were calculated. The PDH activity was calculated by subtraction of the change in absorbance of the blank well from that of the activity measurement well. The percentage of the PDHa activity to the PDHt activity was calculated and taken as an index of the PDH activation.

[2] = Metabolic stability test in liver microsome (human); assay type: in vitro ADME; details: 5 μM test compound
Method: Human liver microsome (manufactured by Xenotech, H0620, final concentration (after dilution), 0.2 mg protein/mL) was suspended in 100 mM potassium phosphate buffer (pH 7.4, containing β-nicotinamide adenine dinucleotide phosphate: 1.3 mM, D-glucose-6-phosphate: 3.3 mM, magnesium chloride: 3.3 mM, glucose-6-phosphate dehydrogenase: 0.45 U/mL), and further mixed with a test compound dissolved in MeCN/DMSO (95/5) (final concentration 5 μM). The mixture was incubated at 37° C. for 10 min and 60 min, acetonitrile containing formic acid (final concentration 0.1%) was added, and the mixture was centrifuged. The test compound (unmodified) in the supernatant was measured by high performance liquid chromatography/mass spectrometry (LC/MS) (manufactured by Waters, LC: Acquity UPLC, MS:SQ Detector or TQ Detector). The residual ratio (%) was calculated from the obtained measurement value.

CC(C)(O)CCOc1cc(-c2cnn(CC(C)(C)O)c2)c2c(c1)[C@@](O)(C(F)(F)F)c1ccccc1-2 [compound (3), (9R)-2-(3-hydroxy-3-methylbutoxy)-4-[1-(2-hydroxy-2-methylpropyl)-1H-pyrazol-4-yl]-9-(trifluoromethyl)-9H-fluoren-9-ol]
stability in liver microsome (residual ratio %) ([1]; 10 min): 98.2% | stability in liver microsome (residual ratio %) ([1]; 60 min): 99.7% | IC50 (human PDHK2 (hPDHK2)): 4.6 nM | PDHa activity (% PDHt activity) (tissue PDH activity; adipose tissue, 5 hr after oral administration): 58 ± 7 % PDHt activity | PDHa activity (% PDHt activity) (tissue PDH activity; adipose tissue, 20 hr after oral administration): 40 ± 3 % PDHt activity | PDHa activity (% PDHt activity) (tissue PDH activity; liver, 5 hr after oral administration): 51 ± 13 % PDHt activity | PDHa activity (% PDHt activity) (tissue PDH activity; liver, 20 hr after oral administration): 31 ± 12 % PDHt activity | stability in liver microsome (residual ratio %) ([2]; 10 min): 96.0% | stability in liver microsome (residual ratio %) ([2]; 60 min): 85.3%
